# Measurements published in US6458806B1, “Aryl alkenamides derivatives as MCP-1 antagonists” (Millennium Pharmaceuticals, Inc., priority 1996, dated 2002).
# Counter-ions that a name gives are not always drawn.
# Target: T1, MCP-1 receptor (Homo sapiens, UniProt P41597)
# T1 construct: host or cells: THP-1 cell membranes
# Experiment: MCP-1 binding assay (125I-MCP-1, THP-1 cell membranes)
# Settings: 0.2 nM 125I-labeled MCP-1, averages of several or two experiments, read-out: Inhibition Of MCP-1 Binding IC50
# Description: Membranes used in the MCP-1 binding assay were prepared from THP-1 cells (human monocytic cell line source—American Type Culture Collection, Tumor Immunology Bank #202, Rockville, Md., accession no. ATCC TIB 202). Cells were harvested by centrifugation and washed twice in ice-cold PBS (phosphate-buffered saline) and the cell pellet was frozen at −80° C. in some cases. Cells were resuspended in ice-cold lysis buffer 5mM HEPES (2-(4N-,[2-hydroxyethyl] piperazin-1-yl)-N′-(2-ethanesulfonic acid), pH 7.5, 2 mM EDTA (ethylenediaminetetraacetic acid), 5 ug/ml each leupeptin, aprotinin, chymostatin (protease inhibitors), and 100 ug/ml PMSF (phenylmethane sulfonyl fluoride—also a protease inhibitor)) at a concentration of 5×10^7 cells/ml. […] Typical binding assays used 10-20 ug/well of total membrane protein as determined with a standard protein assay (e.g. BioRad, Richmond, Calif.).
# For binding, 10-20 ug total membrane protein were included in the binding reaction along with 0.2 nM I^125-labeled MCP-1 (Amersham, Arlington Heights, Ill.) with or without unlabeled competitor MCP-1 (Peprotech, Rocky Hill, N.J.) (at 250-500 nM). […] Filters were dried and counted in a Beta-Plate scintillation counter using standard scintillation fluid. […]
# IC50s were calculated using a non-linear 3-parameter logistic curve fit. […]
# T1 sequence (P41597 whole entry): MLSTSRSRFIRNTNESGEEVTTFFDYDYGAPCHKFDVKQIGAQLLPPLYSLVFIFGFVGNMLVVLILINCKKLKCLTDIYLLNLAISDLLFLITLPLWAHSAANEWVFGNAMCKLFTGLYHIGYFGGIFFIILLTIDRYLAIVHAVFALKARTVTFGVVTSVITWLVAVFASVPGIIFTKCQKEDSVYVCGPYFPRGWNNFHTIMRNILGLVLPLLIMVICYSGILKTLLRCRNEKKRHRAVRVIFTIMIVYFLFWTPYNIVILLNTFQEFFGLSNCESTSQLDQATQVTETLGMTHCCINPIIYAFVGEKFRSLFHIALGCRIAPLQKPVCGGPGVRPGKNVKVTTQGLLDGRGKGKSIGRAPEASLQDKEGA
row,IC50 [µM],Compound
1,10.8,"O=C(C=CC=Cc1ccc(Cl)c(Cl)c1)NCCCN1CCOCC1 [Example 2, 5-(3,4-Dichloro-phenyl)-penta-2,4-dienoic Acid (3-morpholin-4-yl-propyl)-amide]"

# System: not given
# Experiment: not given
# Settings: not given
row,Compound,melting point [°C]
1,"Cc1ccc(/C=C/C=C/C(=O)NCCCN2CCCCC2)cc1 [Example 9, (2E,4E)-5-p-Tolyl-penta-2,4-dienoic Acid (3-piperidin-1-yl-propyl)-amide]",40 to 50
2,"COc1ccc(/C=C/C=C/C(=O)NCCCN2CCCCC2)cc1 [Example 10, (2E,4E)-5-(4-Methoxy-phenyl)-penta-2,4-dienoic Acid (3-piperidin-1-yl-propyl)-amide]",69 to 73
3,"O=C(/C=C/C=C/c1ccc([N+](=O)[O-])cc1)NCCCN1CCCCC1 [Example 11, (2E,4E)-5-(4-Nitro-phenyl)-penta-2,4-dienoic Acid (3-piperidin-1-yl-propyl)-amide]",225 to 226
4,"O=C(/C=C/C=C/c1ccccc1)NCCCN1CCCCC1 [Example 13, (2E,4E)-5-Phenyl-penta-2,4-dienoic Acid (3-piperidin-1-yl-propyl)-amide]",111 to 115
5,"O=C(/C=C/C=C/c1ccc(-c2ccccc2)cc1)NCCCN1CCCCC1 [Example 14, (2E,4E)-5-Biphenyl-4-yl-penta-2,4-dienoic Acid (3-piperidin-1-yl-propyl)-amide]",165 to 168
6,"O=C(/C=C/C=C/c1ccc2ccccc2c1)NCCCN1CCCCC1 [Example 15, (2E,4E)-5-Naphthalen-2-yl-penta-2,4-dienoic Acid (3-piperidin-1-yl-propyl)-amide]",150 to 156
7,"O=C(/C=C/C=C(c1ccccc1)c1ccccc1)NCCCN1CCCCC1 [Example 22, (2E) -5,5-Diphenyl-penta-2,4-dienoic acid (3-piperidin-1-yl-propyl)-amide]",55 to 65

# More lines, now with the values ahead:
row,melting point [°C],Compound
1,192 to 194,"O=C(/C=C/C=C/c1ccc(Cl)c(Cl)c1)NCCCN1CCCCC1 (as salt: HCl) [Example 1, 5-(3,4-Dichloro-phenyl)-penta-2,4-dienoic Acid (3-piperidin-1-yl-propyl)-amide-HCl]"
2,130 to 132,"O=C(C=CC=Cc1ccc(Cl)c(Cl)c1)NCCCN1CCOCC1 [Example 2, 5-(3,4-Dichloro-phenyl)-penta-2,4-dienoic Acid (3-morpholin-4-yl-propyl)-amide]"
3,60 to 62,"O=C(/C=C/C=C/c1ccc(Cl)cc1)NCCCN1CCCCC1 [Example 12, (2E,4E)-5-(4-Chloro-phenyl)-penta-2,4-dienoic Acid (3-piperidin-1-yl-propyl)-amide]"
4,186 to 187,"O=C(/C=C/C=C/c1cc(Cl)cc(Cl)c1)NCCCN1CCCCC1 [Example 16, (2E,4E)-5-(3,5-Dichloro-phenyl)-penta-2,4-dienoic Acid (3-piperidin-1-yl-propyl)-amide]"
5,66 to 69,"O=C(/C=C/C=C/c1ccc(Cl)cc1Cl)NCCCN1CCCCC1 [Example 17, (2E,4E)-5-(2,4-Dichloro-phenyl)-penta-2,4-dienoic Acid (3-piperidin-1-yl-propyl)-amide]"
6,165 to 170,"CC(/C=C/c1ccc(Cl)c(Cl)c1)=C\C(=O)NCCCN1CCCCC1 [Example 19, (2E,4E)-5-(3,4-Dichloro-phenyl)-3-methyl-penta-2,4-dienoic Acid (3-piperidin-1-yl-propyl)-amide]"
7,50 to 60,"CC(=C/C(=O)NCCCN1CCCCC1)/C=C/c1ccc(Cl)c(Cl)c1 [Example 20, (2Z,4E)-5-(3,4-Dichloro-phenyl)-3-methyl-penta-2,4-dienoic Acid (3-piperidin-1-yl-propyl)-amide]"
8,65 to 70,"C/C(=C\C=C\C(=O)NCCCN1CCCCC1)c1ccc(Cl)c(Cl)c1 [Example 21, (2E,4E)-5-(3,4-Dichloro-phenyl)-hexa-2,4-dienoic Acid (3-piperidin-1-yl-propyl)amide]"
